The term Emax denotes the maximal effect, on the per cent scale that the assay sets. In general, EC50 refers to the midpoint of the concentration-response curve.

The target of assay [1] is GlunN1/GluN2A glutamate receptors (Homo sapiens (Human), UniProt Q05586+Q12879). The experiment in a line: Whole-cell patch clamp of mammalian cells (Ionworks Barracuda), positive allosteric modulation, GluN1/GluN2A. The class given is cell-based. In outline: (§1)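 Perforated-patch whole-cell recording, holding −70 mV, −40 mV during application; Cs-based internal pH 7.2, external with 5 mM CaCl2 pH 7.4. Test article pre-applied alone 5 min, then co-applied with EC20 L-glutamate plus 30 μM glycine. EC50 from Hill fit of % activation over the EC20 current.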

Assay [2] addresses GluN2B glutamate receptors (Homo sapiens (Human), UniProt Q05586+Q13224). In words: Whole-cell patch clamp of mammalian cells (Ionworks Barracuda), positive allosteric modulation, GluN2B. It is filed as cell-based. Conditions: for Emax: read-out: Avg Emax 2B (%). An outline of the steps: as §1
The mark [3] stands for this setting: HEK293 cells, % potentiation of current elicited with EC20 L-glutamate and 30 μM glycine, read-out: Avg Emax 2A (%).
[4] abbreviates: HEK293 cells, co-application with EC20 L-glutamate and 30 μM glycine, 8-point concentration-response, read-out: Avg EC50 2A.
[5] abbreviates: % potentiation of current elicited with EC20 L-glutamate and 30 μM glycine.
[6] abbreviates: co-application with EC20 L-glutamate and 30 μM glycine, 8-point concentration-response, read-out: Avg EC50 2B.
Where [7] appears, read: HEK293, read-out: Avg Emax 2A (%).

Read-outs that look alike come from different tables or passages of the source.

Sequence of GlunN1/GluN2A glutamate receptors (Q12879 23-1464, other chains not shown): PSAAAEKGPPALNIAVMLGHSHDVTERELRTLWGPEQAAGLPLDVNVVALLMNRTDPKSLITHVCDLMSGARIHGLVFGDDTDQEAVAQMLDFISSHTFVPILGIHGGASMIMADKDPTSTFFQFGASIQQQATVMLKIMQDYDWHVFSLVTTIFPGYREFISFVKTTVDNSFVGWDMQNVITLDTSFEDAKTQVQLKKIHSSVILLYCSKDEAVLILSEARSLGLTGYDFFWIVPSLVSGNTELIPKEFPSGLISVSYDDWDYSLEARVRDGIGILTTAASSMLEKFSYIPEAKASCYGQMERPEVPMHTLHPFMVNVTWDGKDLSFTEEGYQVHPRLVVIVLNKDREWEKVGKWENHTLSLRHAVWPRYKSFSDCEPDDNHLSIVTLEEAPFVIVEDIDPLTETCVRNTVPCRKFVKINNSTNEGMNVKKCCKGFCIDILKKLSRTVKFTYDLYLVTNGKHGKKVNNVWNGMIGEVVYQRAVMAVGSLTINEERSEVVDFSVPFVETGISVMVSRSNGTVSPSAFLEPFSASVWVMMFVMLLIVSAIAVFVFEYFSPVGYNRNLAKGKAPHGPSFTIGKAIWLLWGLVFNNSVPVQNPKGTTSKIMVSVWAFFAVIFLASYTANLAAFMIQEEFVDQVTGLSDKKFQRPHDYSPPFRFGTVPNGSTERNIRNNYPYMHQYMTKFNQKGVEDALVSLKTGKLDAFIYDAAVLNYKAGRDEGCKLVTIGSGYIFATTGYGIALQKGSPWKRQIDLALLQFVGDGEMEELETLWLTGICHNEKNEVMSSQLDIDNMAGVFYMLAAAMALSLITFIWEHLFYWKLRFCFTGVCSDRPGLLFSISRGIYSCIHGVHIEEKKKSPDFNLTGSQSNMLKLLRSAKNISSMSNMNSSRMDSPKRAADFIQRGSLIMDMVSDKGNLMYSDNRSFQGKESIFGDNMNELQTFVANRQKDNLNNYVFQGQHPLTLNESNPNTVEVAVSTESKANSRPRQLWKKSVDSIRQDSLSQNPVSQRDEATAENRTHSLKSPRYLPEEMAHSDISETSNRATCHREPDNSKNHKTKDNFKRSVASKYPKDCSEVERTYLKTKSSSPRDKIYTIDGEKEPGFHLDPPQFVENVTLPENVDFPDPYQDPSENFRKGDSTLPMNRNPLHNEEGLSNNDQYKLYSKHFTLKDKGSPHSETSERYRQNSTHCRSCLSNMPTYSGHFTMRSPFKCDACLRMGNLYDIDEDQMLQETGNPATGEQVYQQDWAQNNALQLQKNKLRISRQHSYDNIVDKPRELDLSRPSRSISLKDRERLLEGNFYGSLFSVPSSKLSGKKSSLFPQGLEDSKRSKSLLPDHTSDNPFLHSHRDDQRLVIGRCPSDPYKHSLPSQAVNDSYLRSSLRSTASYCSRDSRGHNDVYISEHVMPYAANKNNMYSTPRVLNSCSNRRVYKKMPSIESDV
Sequence of GluN2B glutamate receptors (Q13224 27-1484, other chains not shown): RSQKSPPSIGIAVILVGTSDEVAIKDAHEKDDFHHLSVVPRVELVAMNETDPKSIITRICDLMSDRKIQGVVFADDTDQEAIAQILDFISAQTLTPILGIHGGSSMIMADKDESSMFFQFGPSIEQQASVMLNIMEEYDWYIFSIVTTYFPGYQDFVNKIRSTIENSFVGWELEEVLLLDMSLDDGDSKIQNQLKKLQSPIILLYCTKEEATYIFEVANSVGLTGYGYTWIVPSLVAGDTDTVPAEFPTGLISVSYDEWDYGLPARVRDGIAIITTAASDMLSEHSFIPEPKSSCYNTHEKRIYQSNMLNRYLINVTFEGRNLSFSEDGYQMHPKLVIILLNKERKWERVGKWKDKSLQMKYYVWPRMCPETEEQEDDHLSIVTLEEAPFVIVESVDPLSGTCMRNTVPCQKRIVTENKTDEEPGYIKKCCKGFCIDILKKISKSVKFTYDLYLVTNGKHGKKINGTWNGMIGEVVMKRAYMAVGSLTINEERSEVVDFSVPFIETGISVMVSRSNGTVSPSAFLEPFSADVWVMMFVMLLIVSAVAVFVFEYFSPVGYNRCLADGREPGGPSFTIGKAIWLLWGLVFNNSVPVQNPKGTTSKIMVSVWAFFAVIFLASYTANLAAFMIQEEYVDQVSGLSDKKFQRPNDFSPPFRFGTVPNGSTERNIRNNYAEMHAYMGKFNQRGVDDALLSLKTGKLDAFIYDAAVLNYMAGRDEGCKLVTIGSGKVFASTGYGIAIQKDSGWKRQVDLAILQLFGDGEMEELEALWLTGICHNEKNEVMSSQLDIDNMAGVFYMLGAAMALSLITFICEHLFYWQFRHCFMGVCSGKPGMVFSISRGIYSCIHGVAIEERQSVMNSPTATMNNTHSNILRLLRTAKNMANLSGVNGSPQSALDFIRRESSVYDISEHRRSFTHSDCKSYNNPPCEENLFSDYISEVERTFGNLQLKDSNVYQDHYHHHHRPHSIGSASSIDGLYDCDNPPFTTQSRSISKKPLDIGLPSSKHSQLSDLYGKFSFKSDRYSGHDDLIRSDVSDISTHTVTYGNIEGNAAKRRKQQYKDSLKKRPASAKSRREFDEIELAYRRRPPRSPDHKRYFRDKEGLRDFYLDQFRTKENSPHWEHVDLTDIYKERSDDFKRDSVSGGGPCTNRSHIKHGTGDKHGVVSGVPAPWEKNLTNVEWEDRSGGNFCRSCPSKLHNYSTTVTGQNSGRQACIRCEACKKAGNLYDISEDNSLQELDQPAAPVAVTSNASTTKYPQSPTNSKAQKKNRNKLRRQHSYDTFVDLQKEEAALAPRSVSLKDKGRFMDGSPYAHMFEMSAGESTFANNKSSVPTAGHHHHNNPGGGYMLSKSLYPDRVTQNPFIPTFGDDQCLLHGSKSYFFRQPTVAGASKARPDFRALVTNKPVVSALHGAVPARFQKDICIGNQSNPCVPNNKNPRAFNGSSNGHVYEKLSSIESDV

Regarding `CC[C@]1(O)CC[C@@]2(C)C(=CC[C@H]3[C@@H]4CC[C@H]([C@H](C)CC[C@H](O)c5cccc(C#N)c5)[C@@]4(C)CC[C@@H]32)C1` [Compound 6998], the Emax in assay [1] (setting [3]) was 338%; in assay [2] (setting [5]), 303%. Further, the EC50 in assay [1] (setting [4]) was 358 nM; in assay [2] (setting [6]), 304 nM.
`CC[C@]1(O)CC[C@@]2(C)[C@@H](CC[C@@H]3[C@@H]2CC[C@]2(C)[C@@H]([C@H](C)CC[C@@H](O)c4ccccn4)CC[C@@H]32)C1` [Compound 7030]: the values for the maximum response (Emax) in assay [1] (setting [3]) and in assay [2] (setting [5]) were 28.3% and 74.7%, respectively.
Regarding `CC[C@]1(O)CC[C@@]2(C)[C@@H](CC[C@@H]3[C@@H]2CC[C@]2(C)[C@@H]([C@H](C)CC[C@H](O)c4ccccn4)CC[C@@H]32)C1` [Compound 7032], the maximum response (Emax) in assay [1] (setting [3]) is 28.3%; in assay [2] (setting [5]) it was 63.8%. Further, the EC50 in assay [2] is 874 nM.
With `CC[C@]1(O)CC[C@@]2(C)C(=CC[C@H]3[C@@H]4CC[C@H]([C@H](C)CC[C@@H](O)c5ccc(F)cc5)[C@@]4(C)CC[C@@H]32)C1` [Compound 7147], in assay [1] (setting [7]), the maximal response (Emax) is 200%. Moreover, in assay [2], the EC50 came out at 91.7 nM and the maximal response (Emax) was found to be 242%.
As for `CC[C@]1(O)CC[C@@]2(C)C(=CC[C@H]3[C@@H]4CC[C@H]([C@H](C)CC[C@@H](O)c5ccccc5F)[C@@]4(C)CC[C@@H]32)C1` [Compound 7282], the figures for the EC50 in assay [1] and in assay [2] were 95.9 nM and 174 nM, respectively.
Consider `CC[C@]1(O)CC[C@@]2(C)C(=CC[C@H]3[C@@H]4CC[C@H]([C@H](C)CC[C@H](O)c5ccccc5C#N)[C@@]4(C)CC[C@@H]32)C1` [Compound 7300], for which the concentration for a half-maximal effect (EC50) in assay [1] and in assay [2] was above 10000 nM in each case. The maximal effect (Emax) was 37.5% in assay [1] (setting [3]) and 46.9% in assay [2] (setting [5]).
`CC[C@]1(O)CC[C@@]2(C)C(=CC[C@H]3[C@@H]4CC[C@H]([C@H](C)CC[C@@H](O)c5ccccc5C#N)[C@@]4(C)CC[C@@H]32)C1` [Compound 7399]: the EC50 in assay [1] was 696 nM; in assay [2] it was 1580 nM. For the same molecule, the Emax stood at 150% in assay [1] (setting [3]) and 180% in assay [2] (setting [5]).
`C[C@H](CC[C@](C)(O)c1ccccc1)[C@H]1CC[C@H]2[C@@H]3CC=C4C[C@@](C)(O)CC[C@]4(C)[C@H]3CC[C@]12C` [Compound 7468]: the Emax in assay [1] (setting [7]) is 273%; in assay [2] it was 317%.
Consider `CC[C@]1(O)CC[C@H]2[C@@H](CC[C@@H]3[C@@H]2CC[C@]2(C)[C@@H]([C@H](C)CCC4(O)CC4)CC[C@@H]32)C1` [Compound 8127], for which the EC50 came to 543 nM in assay [1] and 571 nM in assay [2]. In addition, the results for the Emax in assay [1] (setting [3]) and in assay [2] (setting [5]) were 136% and 211%, respectively.
Turning to `CC[C@]1(O)CC[C@H]2C(=CC[C@@H]3[C@@H]2CC[C@]2(C)[C@@H]([C@H](C)CCC4(O)CC4)CC[C@@H]32)C1` [Compound 8245], the values for the concentration giving a half-maximal response (EC50) in assay [1] and in assay [2] were 525 nM and 268 nM, respectively. Further, the values for the maximal effect (Emax) in assay [1] (setting [3]) and in assay [2] (setting [5]) were 73% and 120%, respectively.
With `CC[C@]1(O)CC[C@H]2C(=CC[C@@H]3[C@@H]2CC[C@]2(C)[C@@H]([C@H](C)CCC(O)C(C)(C)C)CC[C@@H]32)C1` (stereo partly shown) [Compound 8361], the EC50 is 87 nM in assay [1] and 136 nM in assay [2]. Moreover, the Emax in assay [1] (setting [7]) was determined as 252%; in assay [2], 309%.
The corresponding values for `CC[C@]1(O)CC[C@H]2C(=CC[C@@H]3[C@@H]2CC[C@]2(C)[C@@H]([C@H](C)CC[C@H](O)C(C)(C)C)CC[C@@H]32)C1` [Compound 8378] are 124 nM, 208 nM, 195% and 259%.
As for `CC[C@]1(O)CC[C@H]2C(=CC[C@@H]3[C@@H]2CC[C@]2(C)[C@@H]([C@H](C)CC[C@@H](O)C(C)(C)C)CC[C@@H]32)C1` [Compound 8379], the concentration for a half-maximal effect (EC50) in assay [1] was found to be 73.4 nM; in assay [2], 78.1 nM. Besides, the Emax in assay [1] (setting [7]) was found to be 252%; in assay [2], 359%.
`CC[C@]1(O)CC[C@H]2C(=CC[C@@H]3[C@@H]2CC[C@]2(C)[C@@H]([C@H](C)CC[C@H](O)C(C)C)CC[C@@H]32)C1` [Compound 8462]: the EC50 in assay [1] worked out at 170 nM; in assay [2] it was 96.2 nM.
Take `CC[C@]1(O)CC[C@H]2C(=CC[C@@H]3[C@@H]2CC[C@]2(C)[C@@H]([C@H](C)CC[C@@H](O)C(C)C)CC[C@@H]32)C1` [Compound 8463]: the results for the EC50 in assay [1] and in assay [2] were 102 nM and 85.1 nM, respectively.
`CCC(O)CC[C@@H](C)[C@H]1CC[C@H]2[C@@H]3CC=C4C[C@](O)(CC)CC[C@@H]4[C@H]3CC[C@]12C` (stereo partly shown) [Compound 8564]: the EC50 in assay [1] was 469 nM; in assay [2] it was 489 nM. Moreover, the Emax worked out at 252% in assay [1] (setting [3]) and 310% in assay [2] (setting [5]).
`CC[C@@H](O)CC[C@@H](C)[C@H]1CC[C@H]2[C@@H]3CC=C4C[C@](O)(CC)CC[C@@H]4[C@H]3CC[C@]12C` [Compound 8584]: the figures for the concentration for a half-maximal effect (EC50) in assay [1] and in assay [2] were 332 nM and 244 nM, respectively. Besides, the Emax in assay [1] (setting [3]) stood at 284%; in assay [2] (setting [5]), 363%.
Consider `CC[C@H](O)CC[C@@H](C)[C@H]1CC[C@H]2[C@@H]3CC=C4C[C@](O)(CC)CC[C@@H]4[C@H]3CC[C@]12C` [Compound 8585], for which the concentration for a half-maximal effect (EC50) in assay [1] was found to be 286 nM; in assay [2], 237 nM. Further, the Emax was 194% in assay [1] (setting [3]) and 233% in assay [2] (setting [5]).
On to `CC[C@]1(O)CC[C@H]2C(=CC[C@@H]3[C@@H]2CC[C@]2(C)[C@@H]([C@H](C)CC[C@]4(O)CCOC4)CC[C@@H]32)C1` [Compound 8603], for which the EC50 in assay [1] was 135 nM; in assay [2], 75.1 nM.
On the same counts, the results for `CC[C@]1(O)CC[C@H]2C(=CC[C@@H]3[C@@H]2CC[C@]2(C)[C@@H]([C@H](C)CCC4(O)CCOC4)CC[C@@H]32)C1` (stereo partly shown) [Compound 8689] are 169 nM and 175 nM.
Turning to `CC[C@]1(O)CC[C@H]2C(=CC[C@@H]3[C@@H]2CC[C@]2(C)[C@@H]([C@H](C)CCC4(O)CCC(F)(F)CC4)CC[C@@H]32)C1` [Compound 8708], the values for the EC50 in assay [1] and in assay [2] were 697 nM and 553 nM, respectively. Also, the Emax in assay [1] (setting [3]) turned out to be 117%; in assay [2] (setting [5]), 243%.
Consider `CC[C@H](O)CC[C@@H](C)[C@H]1CC[C@H]2[C@@H]3CC[C@H]4C[C@](O)(CC)CC[C@@H]4[C@H]3CC[C@]12C` [Compound 8809], for which the figures for the EC50 in assay [1] and in assay [2] were 533 nM and 160 nM, respectively. Moreover, the maximal response (Emax) in assay [1] (setting [7]) came to 73.6%; in assay [2] it was 78.2%.
In the case of `CC[C@]1(O)CC[C@H]2C(=CC[C@@H]3[C@@H]2CC[C@]2(C)[C@@H]([C@H](C)CCC4(O)CCC(C)(C)CC4)CC[C@@H]32)C1` [Compound 8946], the figures for the concentration for a half-maximal effect (EC50) in assay [1] and in assay [2] were 1600 nM and 1350 nM, respectively. The results for the Emax in assay [1] (setting [3]) and in assay [2] (setting [5]) were 263% and 231%, respectively.
On to `CC[C@]1(O)CC[C@H]2[C@@H](CC[C@@H]3[C@@H]2CC[C@]2(C)[C@@H]([C@H](C)CCC4(O)CCC(C)(C)CC4)CC[C@@H]32)C1` [Compound 8963], for which the Emax in assay [1] (setting [3]) was found to be 8.4%; in assay [2] (setting [5]), 55.9%. Also, the half-maximal effective concentration (EC50) in assay [1] (setting [4]) and in assay [2] (setting [6]) was above 10000 nM throughout.
For the molecule `C[C@H](CC[C@](C)(O)C(F)(F)F)[C@H]1CC[C@H]2[C@@H]3CC=C4C[C@@](C)(O)CC[C@@H]4[C@H]3CC[C@]12C` [Compound 9062], the Emax in assay [1] (setting [7]) turned out to be 66.5%; in assay [2], 52.2%.
With `CC[C@@H](O)CC[C@@H](C)[C@H]1CC[C@H]2[C@@H]3CC[C@H]4C[C@](O)(CC)CC[C@@H]4[C@H]3CC[C@]12C` [Compound 9142], the EC50 was above 10000 nM in assay [1] and 70.4 nM in assay [2]. In addition, the maximal effect (Emax) came to 41.6% in assay [1] (setting [7]) and 44.8% in assay [2].
Turning to `CC[C@]1(O)CC[C@H]2C(=CC[C@@H]3[C@@H]2CC[C@]2(C)[C@@H]([C@H](C)CCC[C@H](O)C(F)(F)F)CC[C@@H]32)C1` [Compound 9567], the maximum response (Emax) in assay [1] (setting [3]) was found to be 104%; in assay [2] (setting [5]), 124%. Moreover, the results for the concentration for a half-maximal effect (EC50) in assay [1] (setting [4]) and in assay [2] (setting [6]) were 328 nM and 378 nM, respectively.
`CC[C@]1(O)CC[C@H]2[C@@H](CC[C@@H]3[C@@H]2CC[C@]2(C)[C@@H]([C@H](C)CCCC(C)(C)O)CC[C@@H]32)C1` [Compound 9670]: the EC50 was found to be 366 nM in assay [1] and 220 nM in assay [2]. For the same molecule, the values for the maximal effect (Emax) in assay [1] (setting [3]) and in assay [2] (setting [5]) were 154% and 213%, respectively.
As to `CC[C@]1(O)CC[C@H]2C(=CC[C@@H]3[C@@H]2CC[C@]2(C)[C@@H]([C@H](C)CCC[C@@H](C)O)CC[C@@H]32)C1` [Compound 9792], the values for the maximal response (Emax) in assay [1] (setting [3]) and in assay [2] (setting [5]) were 64.5% and 58.2%, respectively.
Consider `CC[C@]1(O)CC[C@H]2C(=CC[C@@H]3[C@@H]2CC[C@]2(C)[C@@H]([C@H](C)CCCC4(O)CCC(F)(F)CC4)CC[C@@H]32)C1` [Compound 9810], for which the Emax came to 87.1% in assay [1] (setting [3]) and 91.6% in assay [2] (setting [5]). Also, the EC50 in assay [1] (setting [4]) amounted to 124 nM; in assay [2] (setting [6]), 151 nM.

The values are drawn from patent publication US11149054B2, “Oxysterols and methods of use thereof” (Sage Therapeutics, Inc., priority 2016, dated 2021).
